Data published in patent US20100260818A1, “STABLE MEDICATED CHEWING GUM COMPRISING CYCLODEXTRIN INCLUSION COMPLEX” (FERTIN PHARMA A/S, priority 2007, published 2010).
Several values for one entry are separate records, joined by “and”; a condition that tells them apart may be missing. Equal entries are not always repeated.

Experiments:
[1] = Suspension homogeneity (visual) and chemical stability of cetirizine and β-cyclodextrin suspension with hydroxy acids, salts, NaOH; details: for Suspension homogeneity compared to control: visual
Method: The effect of different hydroxy acids, hydroxy acid salts and sodium hydroxide on the suspension homogeneity and also on the chemical stability of cetirizine in the suspensions was studied.
The cetirizine and β-cyclodextrin suspensions were prepared by stirring aqueous cetirizine solution with cyclodextrin and with the additives.

[2] = β-cyclodextrin content of filtrates of cetirizine.2HCL/β-cyclodextrin reaction mixture (HPLC, ELSD); assay type: physicochemical
[3] = Powder sample storage stability, impurities by HPLC (Example 9); assay type: physicochemical; details: 34 days, 40 degrees C., 75% relative humidity; cyclodextrin and cetirizine uncomplexed in same formulation
Method: The four samples were stored in capped 50 mL Polyethylene Duma™ containers (Superfos Pharma Pack, Denmark) at 40 degrees C. and 75% relative humidity for 34 days, and were subsequently analysed by HPLC.

[4] = molar ratio CTZ:Additive not calculated

For `O=C(O)CC(O)(CC(=O)O)C(=O)O` [Citric acid], the “Suspension homogeneity compared to control” value ([1]; molar ratio CTZ:Additive 1:1) was “no significant change” and the “BCD content in the filtrate” value ([2]; molar ratio CTZ:Additive 1:1) was 154 mg/mL.

In the case of `O=C([O-])C(O)C(O)C(=O)[O-].[K+].[Na+]` (stereo not drawn) [K—Na-tartarate, Potassium-sodium-tartarate], the “Suspension homogeneity compared to control” value ([1]; molar ratio CTZ:Additive 1:5) is reported as “better” and the “BCD content in the filtrate” value ([2]; molar ratio CTZ:Additive 1:5) is reported as 120 mg/mL.

For `O=C([O-])CC(O)(CC(=O)[O-])C(=O)[O-].[Na+].[Na+].[Na+]` [Na-citrate, Tri-sodium citrate], the “Chemical degradations affecting β-cyclodextrin and cetirizine component of the binary formulation” value ([1]; effective amount of additive 3-6% by weight) was “effectively suppressed”, the “Suspension homogeneity compared to control” value ([1]; molar ratio CTZ:Additive 1:1) was “better” and the “Suspension homogeneity compared to control” value ([1]; molar ratio CTZ:Additive 1:2) was “better”. For the same compound, the “Suspension homogeneity compared to control” value ([1]; molar ratio CTZ:Additive 1:3) was “better”, the “Suspension homogeneity compared to control” value ([1]; molar ratio CTZ:Additive 1:4) was “better” and the “BCD content in the filtrate” value ([2]; molar ratio CTZ:Additive 1:4) was 135 mg/mL.

For `[Na+].[OH-]` [NaOH, Sodium hydroxide], the “Suspension homogeneity compared to control” value [1, 4] was “no significant change” and the “BCD content in the filtrate” value [2, 4] was 115 mg/mL and 125 mg/mL.

For `O=C(O)C(O)C(O)C(=O)O` (stereo not drawn) [Tartaric acid], the “Suspension homogeneity compared to control” value ([1]; molar ratio CTZ:Additive 1:2) was “better” and the “BCD content in the filtrate” value ([2]; molar ratio CTZ:Additive 1:2) was 130 mg/mL.

In the case of `OC[C@H]1O[C@@H]2O[C@H]3[C@H](O)[C@@H](O)[C@@H](O[C@H]4[C@H](O)[C@@H](O)[C@@H](O[C@H]5[C@H](O)[C@@H](O)[C@@H](O[C@H]6[C@H](O)[C@@H](O)[C@@H](O[C@H]7[C@H](O)[C@@H](O)[C@@H](O[C@H]8[C@H](O)[C@@H](O)[C@@H](O[C@H]1[C@H](O)[C@H]2O)O[C@@H]8CO)O[C@@H]7CO)O[C@@H]6CO)O[C@@H]5CO)O[C@@H]4CO)O[C@@H]3CO` [un-complexed cyclodextrin, Beta-cyclodextrin], the “Effect on the stability of cetirizine” value [3] is reported as “does not have any significant effect”.
